The text below walks through data of paper PMC2867455 (Journal of medicinal chemistry, 2010).

The target in data set [1] is T1, PFTase (Saccharomyces cerevisiae, UniProt P22007+P29703).
T1 sequence (P22007 1-431): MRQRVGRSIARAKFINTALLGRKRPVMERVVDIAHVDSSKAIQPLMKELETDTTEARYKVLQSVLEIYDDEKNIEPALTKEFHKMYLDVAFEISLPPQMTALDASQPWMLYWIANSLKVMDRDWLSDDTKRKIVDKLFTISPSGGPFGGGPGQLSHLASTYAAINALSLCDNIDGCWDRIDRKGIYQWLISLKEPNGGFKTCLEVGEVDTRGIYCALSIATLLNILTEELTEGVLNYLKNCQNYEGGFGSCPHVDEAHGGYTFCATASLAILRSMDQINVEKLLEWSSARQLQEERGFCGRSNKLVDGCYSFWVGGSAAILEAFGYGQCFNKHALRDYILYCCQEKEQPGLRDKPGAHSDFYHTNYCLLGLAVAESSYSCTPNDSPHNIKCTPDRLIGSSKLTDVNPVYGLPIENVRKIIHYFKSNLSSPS
T1 sequence (P29703 1-316): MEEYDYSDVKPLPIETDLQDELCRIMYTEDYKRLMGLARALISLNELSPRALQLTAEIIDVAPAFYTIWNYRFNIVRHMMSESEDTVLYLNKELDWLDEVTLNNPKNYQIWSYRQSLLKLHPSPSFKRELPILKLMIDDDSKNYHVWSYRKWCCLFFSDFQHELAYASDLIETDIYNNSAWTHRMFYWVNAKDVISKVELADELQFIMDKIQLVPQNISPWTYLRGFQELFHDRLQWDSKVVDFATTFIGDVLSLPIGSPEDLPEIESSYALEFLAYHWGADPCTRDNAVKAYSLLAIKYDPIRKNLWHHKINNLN
The data set is described as follows: PFTase in vitro continuous-fluorescence assay. In kind it is biochemical.

Data set [2] relates to mouse models of leukemia and melanoma. To be noted: intra-peritoneal delivery; cited from earlier work.
For data set [3], the system named is GFP-H-Ras. The data set is described as follows: Cell based analysis of GFP-H-Ras processing in MDCK cells.
Data set [4] concerns MDCK cells.
For data set [5], the target named is PFTase. The settings on record: read-out: IC50 for PFTase; cited from earlier work.
[6] abbreviates: at concentrations as high as 100 µM, 0.04% Triton X-100.

As a reminder, the IC50 is the concentration that inhibits the measured activity by half.

For the molecule `CC(=O)N1CCN(c2ccc(OCC3COC(Cn4ccnc4)(c4ccc(Cl)cc4Cl)O3)cc2)CC1` (stereo not shown) [Ketoconazole], in data set [1] (setting [6]), the “PFTase inhibition (in words)” value is listed as “little to no inhibition”.

`OC(Cn1cncn1)(Cn1cncn1)c1ccc(F)cc1F` [Fluconazole]: the “PFTase inhibition (in words)” value in data set [1] (setting [6]) is recorded as “little to no inhibition”.

As to `Clc1ccc(COC(Cn2ccnc2)c2ccc(Cl)cc2Cl)c(Cl)c1` (stereo not shown) [Miconazole], the “survival in mouse models of leukemia and melanoma” value in data set [2] is reported as “promote survival”. Besides, the “inhibition of GFP-H-Ras processing” value in data set [3] (10 µM, 48 h, cells remaining alive) was “significant inhibition of GFP-H-Ras processing”. Also, in data set [4], the toxicity to cells entry is “toxicity and cell death”.

Turning to `Clc1ccccc1C(c1ccccc1)(c1ccccc1)n1ccnc1` [Clotrimazole], the “PFTase inhibition (in words)” value in data set [1] (setting [6]) is reported as “little to no inhibition”.

For the molecule `CCOC(=O)N1CCC(=C2c3ccc(Cl)cc3CCc3cccnc32)CC1` [Loratadine], the “inhibition of GFP-H-Ras processing” value in data set [3] (25 µM, 24 h) is given as “appreciable inhibition of GFP-H-Ras processing”. For the same molecule, the “inhibition of prenylation (GFP-H-Ras)” value in data set [3] (concentrations lower than 25 µM, 24 h) is “did not manifest observable inhibition of prenylation”.

As to Tetraiodophenolphthalein [TPIT], the “PFTase inhibition (in words)” value in data set [1] (continuous fluorescence assay) is “not an inhibitor of PFTase”.

`CC(=O)OCC(=O)[C@@]1(O)CC[C@H]2[C@@H]3CCC4=CC(=O)CC[C@]4(C)[C@H]3C(=O)C[C@@]21C` [Cortisone acetate]: in data set [5], the IC50 is 14 µM.
